Reference: paper PMC5330855 (Biochemistry, 2017)

Experiments:
[1] = test system: IYD; conditions: cited from earlier work
[2] = biological target: T1, hhIYD (Haliscomenobacter hydrossis, UniProt F4KU78); format: biochemical
T1 sequence (F4KU78 1-222): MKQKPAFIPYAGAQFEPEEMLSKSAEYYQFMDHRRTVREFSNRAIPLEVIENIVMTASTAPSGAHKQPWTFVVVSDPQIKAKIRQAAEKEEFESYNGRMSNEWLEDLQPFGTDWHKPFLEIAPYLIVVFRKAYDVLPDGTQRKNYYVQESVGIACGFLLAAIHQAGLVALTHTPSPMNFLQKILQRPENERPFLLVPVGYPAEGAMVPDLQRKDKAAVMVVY

[3] = biological target: T1, hhIYD; assay: Quenching of FMNox fluorescence, ligand binding to hhIYD
[4] = biological target: T2, human IYD (Homo sapiens, UniProt Q6PHW0); assay: Catalytic deiodination by human IYD; format: biochemical
T2 sequence (Q6PHW0 with tags, fused parts or gaps): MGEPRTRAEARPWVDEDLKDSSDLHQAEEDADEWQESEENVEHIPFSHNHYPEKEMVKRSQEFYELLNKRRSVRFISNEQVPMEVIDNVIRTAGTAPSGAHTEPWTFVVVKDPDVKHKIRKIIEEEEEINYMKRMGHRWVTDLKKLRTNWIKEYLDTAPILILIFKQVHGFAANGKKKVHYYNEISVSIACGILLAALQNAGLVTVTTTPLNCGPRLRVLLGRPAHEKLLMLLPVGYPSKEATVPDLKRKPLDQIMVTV

[5] = biological target: T1, hhIYD; assay: Anaerobic reduction of hhIYD by xanthine and xanthine oxidase; format: biochemical; conditions: hhIYD 20 μM; F-Tyr 500 μM or 2IP 800 μM
[6] = Intrinsic reactivity of free cofactor FMNhq with 2IP; format: biochemical; conditions: FMN 2.5 μM, 2IP 5 mM, dithionite 0.5% w/v, 2 h incubation; threshold ~ 3 nmol

## O-(4-hydroxy-3,5-diiodophenoxy)-3,5-diiodo-L-tyrosine [Thyroxine]
[1]
  dehalogenation by IYD: not dehalogenated by IYD

## O=C(O)c1ccc(O)c(I)c1 [2IPCOOH, 4-hydroxy-3-iodobenzoic acid]
[2]; hhIYD
  Km larger than that for 2IP: 75%

## N[C@@H](Cc1ccc(O)c(F)c1)C(=O)O [F-Tyr, 3-fluoro-L-tyrosine, reference compound]
[3]
  Kd: 46 ± 2 µM

## N[C@@H](Cc1ccc(O)c(I)c1)C(=O)O [I-Tyr, 3-iodo-L-tyrosine, reference compound]
[3]; hhIYD relative to human IYD
  weaker affinity for hhIYD than human IYD: ~ 90 fold
[4]
  Km greater than Kd: > 80 fold
[4]; I2-Tyr by 125I-iodide release assay
  kcat/Km larger than that measured for I2-Tyr: 50%
[2]; hhIYD versus human IYD
  increase in kcat/Km, hhIYD relative to human IYD: 16 fold

## Nc1ccc(O)c(I)c1 [4A2IP, 4-amino-2-iodophenol]
[3]; hhIYD
  Kd larger than that for 2IP: 40%
[2]; hhIYD
  kcat/Km greater than the parent 2IP: ~6 fold

## N#Cc1ccc(O)c(I)c1 [2IPCN, 4-cyano-2-iodophenol]
[3]; hhIYD
  Kd lower than that of 2IP: ~50 fold
[2]; hhIYD
  deiodination by the bacterial deiodinase: not detectably deiodinated

## Oc1ccccc1I [2IP, 2-iodophenol]
[3]; hhIYD relative to human IYD
  increase in affinity for hhIYD relative to human IYD: ~ 20 fold
[4]
  Km greater than that for I-Tyr: 560 fold
  kcat less than that for I-Tyr: 26 fold
[5]
  accumulation of the FMNsq intermediate during reduction: did not detectably promote an accumulation of the FMNsq intermediate
[6]
  phenol formed with free FMN: no phenol was detected
